In patent publication US20140011799A1 (Bristol-Myers Squibb Company, priority 2012, published 2014) one finds IC50 data, which are given here for 27 compounds.

A value given as a limit tells only on which side of the number the result lay.

The experiment addresses T1, Endothelial lipase (EL) (Homo sapiens, UniProt Q9Y5X9).
T1 construct: HT-1080 cells that were transformed using RAGE technology (Athersys) to overexpress endogenous EL; endogenous in cells; conditioned medium used
T1 sequence (Q9Y5X9 21-500): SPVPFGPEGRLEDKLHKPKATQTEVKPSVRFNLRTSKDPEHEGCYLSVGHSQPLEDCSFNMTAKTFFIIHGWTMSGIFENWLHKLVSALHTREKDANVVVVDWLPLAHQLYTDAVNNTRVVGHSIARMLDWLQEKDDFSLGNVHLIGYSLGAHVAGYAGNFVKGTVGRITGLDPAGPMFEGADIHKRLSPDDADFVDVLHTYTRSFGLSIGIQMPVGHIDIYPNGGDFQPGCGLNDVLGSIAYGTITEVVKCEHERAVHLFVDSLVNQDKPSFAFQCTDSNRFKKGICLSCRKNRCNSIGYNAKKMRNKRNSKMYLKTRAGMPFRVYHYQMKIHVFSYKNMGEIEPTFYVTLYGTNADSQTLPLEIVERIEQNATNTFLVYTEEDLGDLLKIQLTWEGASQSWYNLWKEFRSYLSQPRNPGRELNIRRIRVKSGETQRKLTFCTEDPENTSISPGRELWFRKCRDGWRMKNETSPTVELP
Description: Endothelial lipase (EL) enzymatic assay, fluorescent substrate A10070 in DMPG vesicles. Particulars: EL from conditioned media of HT-1080 cells; compound preincubated 30 min at 37° C; read-out: EL IC50. It counts as biochemical. In outline:
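Vesicles prepared: A10070 dried with DMPG, resuspended in HEPES pH 8.0/NaCl/EDTA, sonicated on ice. Enzyme incubated with compound 30 min at 37° C. Reaction started with 1:10 diluted vesicles. Fluorescence (490/530 nm) followed 60 min; slope from 300–900 secs gives rate.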
For `NS(=O)(=O)NCc1nnc(C(c2nc3ccc(-c4ccccc4)cc3s2)S(=O)(=O)Cc2cccc(Cl)c2)o1` (stereo not drawn) [Example 73, N-((5-(((3-chlorobenzyl)sulfonyl)(6-phenyl-1,3-benzothiazol-2-yl)methyl)-1,3,4-oxadiazol-2-yl)methyl)sulfamide], the IC50 – broadly, the midpoint of a concentration-inhibition curve – was less than 10 nM.

For `NS(=O)(=O)NCc1nnc(C(c2nc3ccc(-c4ccccc4)cc3s2)S(=O)(=O)C2CC2)o1` (stereo not drawn) [Example 74, N-({5-[(cyclopropylsulfonyl) (6-phenyl-1,3-benzothiazol-2-yl)methyl]-1,3,4-oxadiazol-2-yl}methyl) sulfuric diamide], the IC50 was less than 10 nM.

`NS(=O)(=O)NCc1nnc(C(c2nc3ccc(-c4ccc(F)nc4)cc3s2)S(=O)(=O)Cc2ccccc2)o1` (stereo not drawn) [Example 75, N-((5-((benzylsulfonyl) (6-(6-fluoro-3-pyridinyl)-1,3-benzothiazol-2-yl)methyl)-1,3,4-oxadiazol-2-yl)methyl)sulfamide]: the IC50 was less than 10 nM.

In the case of `NS(=O)(=O)NCc1nnc(C(c2nc3ccc(-c4ccc(F)nc4)cc3s2)S(=O)(=O)Cc2ccc(C(F)(F)F)nc2)o1` (stereo not drawn) [Example 76, N-({5-[6-(6-fluoro-3-pyridinyl)-1,3-benzothiazol-2-yl({[6-(trifluoromethyl)pyridin-3-yl]methyl}sulfonyl)methyl]-1,3,4-oxadiazol-2-yl}methyl) sulfuric diamide], the IC50 was 11 nM.

Consider `NS(=O)(=O)NCc1nnc(C(c2nc3ccc(-c4ccc(F)nc4)cc3s2)S(=O)(=O)Cc2ccc(F)nc2)o1` (stereo not drawn) [Example 77, N-({5-[6-(6-fluoro-3-pyridinyl)-1,3-benzothiazol-2-yl({[6-fluoro-pyridin-3-yl]methyl}sulfonyl)methyl]-1,3,4-oxadiazol-2-yl}methyl)sulfuric diamide], for which the IC50 worked out at 18 nM.

For the compound `CS(=O)(=O)C(c1nnc(CNS(N)(=O)=O)o1)c1nc2ccc(-c3ccc(C(=O)NCC(F)(F)F)cc3)cc2s1` (stereo not drawn) [Example 78, 4-(2-((methylsulfonyl) (5-((sulfamoylamino)methyl)-1,3,4-oxadiazol-2-yl)methyl)benzo[d]thiazol-6-yl)-N-(2,2,2-trifluoroethyl) benzamide], the IC50 was less than 10 nM.

For `CS(=O)(=O)C(c1nnc(CNS(N)(=O)=O)o1)c1nc2ccc(-c3ccc(F)nc3)cc2s1` (stereo not drawn) [Example 79, N-((5-((6-(6-fluoro-3-pyridinyl)-1,3-benzothiazol-2-yl)(methylsulfonyl)methyl)-1,3,4-oxadiazol-2-yl)methyl)sulfamide], the IC50 is less than 10 nM.

Consider `CN1CCN(C(=O)c2ccc(-c3ccc4nc(C(c5nnc(CNS(N)(=O)=O)o5)S(C)(=O)=O)sc4c3)cc2)CC1` (stereo not drawn) [Example 80, N-((5-((6-(4-((4-methyl-1-piperazinyl)carbonyl)phenyl)-1,3-benzothiazol-2-yl)(methylsulfonyl)methyl)-1,3,4-oxadiazol-2-yl)methyl)sulfamide], for which the concentration for half-maximal inhibition (IC50) worked out at 57 nM.

For the compound `CN(Cc1nnc(C(c2nc3ccc(-c4ccccc4)cc3s2)S(=O)(=O)Cc2ccccc2)o1)S(N)(=O)=O` (stereo not drawn) [Example 81], the IC50 came out at 32 nM.

In the case of `CC(C)(C)CN1CC(c2nnc(C(c3nc4ccc(-c5ccccc5)cc4s3)S(=O)(=O)Cc3ccccc3)o2)C1` (stereo not drawn) [Example 82, 2-((Benzylsulfonyl)(6-phenylbenzo[d]thiazol-2-yl)methyl)-5-(1-neopentylazetidin-3-yl)-1,3,4-oxadiazole], the half-inhibitory concentration (IC50) is 26 nM.

With `CC(C)(C)OC(=O)NCc1nnc(C(c2nc3ccc(-c4ccccc4)cc3s2)S(C)(=O)=O)o1` (stereo not drawn) [Example 83, tert-Butyl ((5-((methylsulfonyl)(6-phenylbenzo[d]thiazol-2-yl)methyl)-1,3,4-oxadiazol-2-yl)methyl)carbamate], the IC50 was less than 10 nM.

`CC(C)(C)OC(=O)N(Cc1nnc(C(c2nc3ccc(-c4ccccc4)cc3s2)S(C)(=O)=O)o1)S(C)(=O)=O` (stereo not drawn) [Example 84, tert-Butyl methylsulfonyl((5-((methylsulfonyl)(6-phenylbenzo[d]thiazol-2-yl)methyl)-1,3,4-oxadiazol-2-yl)methyl)carbamate]: the 50% inhibitory concentration (IC50) was less than 10 nM.

In the case of `CS(=O)(=O)C(c1nnc(CN)o1)c1nc2ccc(-c3ccccc3)cc2s1` (stereo not drawn) [Example 85, (5-((Methylsulfonyl)(6-phenylbenzo[d]thiazol-2-yl)methyl)-1,3,4-oxadiazol-2-yl)methanamine], the IC50 worked out at 48 nM.

Turning to `CS(=O)(=O)NCc1nnc(C(c2nc3ccc(-c4ccccc4)cc3s2)S(C)(=O)=O)o1` (stereo not drawn) [Example 86, N-((5-((Methylsulfonyl)(6-phenylbenzo[d]thiazol-2-yl)methyl)-1,3,4-oxadiazol-2-yl)methyl)methanesulfonamide], the IC50 is 47 nM.

For `CCNC(=O)NCc1nnc(C(c2nc3ccc(-c4ccccc4)cc3s2)S(C)(=O)=O)o1` (stereo not drawn) [Example 87, 1-Ethyl-3((5-((methylsulfonyl)(6-phenylbenzo[d]thiazol-2-yl)methyl)-1,3,4-oxadiazol-2-yl)methyl)urea], the IC50 turned out to be 46 nM.

In the case of `CC(C)C(=O)NCc1nnc(C(c2nc3ccc(-c4ccccc4)cc3s2)S(C)(=O)=O)o1` (stereo not drawn) [Example 88, N-((5-((Methylsulfonyl)(6-phenylbenzo[d]thiazol-2-yl)methyl)-1,3,4-oxadiazol-2-yl)methyl)isobutyramide], the IC50 came out at 195 nM.

Consider `CS(=O)(=O)C(c1nnc(CS(N)(=O)=O)o1)c1nc2ccc(-c3ccccc3)cc2s1` (stereo not drawn) [Example 89, (5-((Methylsulfonyl)(6-phenylbenzo[d]thiazol-2-yl)methyl)-1,3,4-oxadiazol-2-yl)methanesulfonamide], for which the IC50 is less than 10 nM.

For the compound `NS(=O)(=O)Cc1nnc(C(c2nc3c(F)cc(-c4ccccc4)cc3s2)S(=O)(=O)Cc2ccc(C(F)(F)F)cc2)o1` (stereo not drawn) [Example 90, (5-((4-Fluoro-6-phenylbenzo[d]thiazol-2-yl)((4-(trifluoromethyl)benzyl)sulfonyl)methyl)-1,3,4-oxadiazol-2-yl)methanesulfonamide], the IC50 was less than 10 nM.

On to `O=C1NC(=O)C(Cc2nnc(C(c3nc4cc(F)c(-c5ccccc5)cc4s3)S(=O)(=O)Cc3ccccc3)o2)S1` (stereo not drawn) [Example 91, 5-((5-((benzylsulfonyl) (5-fluoro-6-phenyl-benzo[d]thiazol-2-yl)methyl)-1,3,4-oxadiazol-2-yl)methyl) thiazolidine-2,4-dione], for which the IC50 is less than 10 nM.

As for `O=C(NCCS(=O)(=O)C(c1nnc(CC2SC(=O)NC2=O)o1)c1nc2c(F)cc(-c3ccccc3)cc2s1)OCc1ccccc1` (stereo not drawn) [Example 92, benzyl (2-(((5-((2,4-dioxothiazolidin-5-yl)methyl)-1,3,4-oxadiazol-2-yl)(4-fluoro-6-phenyl-benzo[d]thiazol-2-yl)methyl)sulfonyl)ethyl) carbamate], the IC50 was less than 10 nM.

As to `O=C1NC(=O)C(Cc2nnc(C(c3nc4c(F)cc(-c5ccccc5)cc4s3)S(=O)(=O)Cc3ccccc3)o2)S1` (stereo not drawn) [Example 93, 5-((5-((benzylsulfonyl) (4-fluoro-6-phenyl-benzo[d]thiazol-2-yl)methyl)-1,3,4-oxadiazol-2-yl)methyl)thiazolidine-2,4-dione], the IC50 is less than 10 nM.

On to `CS(=O)(=O)C(c1nnc(CC2SC(=O)NC2=O)o1)c1nc2c(F)cc(-c3ccccc3)cc2s1` (stereo not drawn) [Example 94, 5-((5-((4-fluoro-6-phenyl-benzo[d]thiazol-2-yl) (methylsulfonyl)methyl)-1,3,4-oxadiazol-2-yl)methyl)thiazolidine-2,4-dione], for which the concentration for half-maximal inhibition (IC50) was less than 10 nM.

Regarding `CC(C)S(=O)(=O)C(c1nnc(CC2SC(=O)NC2=O)o1)c1nc2c(F)cc(-c3ccccc3)cc2s1` (stereo not drawn) [Example 95, 5-((5-((4-fluoro-6-phenyl-benzo[d]thiazol-2-yl) (isopropylsulfonyl)methyl)-1,3,4-oxadiazol-2-yl)methyl)thiazolidine-2,4-dione], the IC50 was less than 10 nM.

Consider `Cc1cc2nc(C(c3nnc(CC4SC(=O)NC4=O)o3)S(C)(=O)=O)sc2cc1-c1ccccc1` (stereo not drawn) [Example 96, 5-((5-((5-methyl-6-phenylbenzo[d]thiazol-2-yl)(methyl-sulfonyl)methyl)-1,3,4-oxadiazol-2-yl)methyl)thiazolidine-2,4-dione], for which the IC50 was less than 10 nM.

For `Cc1cc2nc(C(c3nnc(CC4SC(=O)NC4=O)o3)S(=O)(=O)Cc3ccccc3)sc2cc1-c1ccccc1` (stereo not drawn) [Example 97, 5-((5-((benzylsulfonyl) (5-methyl-6-phenyl-benzo[d]thiazol-2-yl)methyl)-1,3,4-oxadiazol-2-yl)methyl)thiazolidine-2,4-dione], the IC50 is less than 10 nM.

Consider `NS(=O)(=O)NCc1nnc(C(c2nc3ccc(-c4ccc(Cl)cc4)cc3s2)S(=O)(=O)Cc2ccccc2)o1` (stereo not drawn) [Example 126, N-((5-((benzylsulfonyl)(6-(4-chlorophenyl)-1,3-benzothiazol-2-yl)methyl)-1,3,4-oxadiazol-2-yl)methyl) sulfamide], for which the IC50 is less than 10 nM.

For the compound `CC(c1nnc(CNS(N)(=O)=O)o1)c1nc2ccc(-c3ccc(F)nc3)cc2s1` (stereo not drawn) [Reference 3, N-((5-(1-(6-(6-Fluoro-3-pyridinyl)-1,3-benzothiazol-2-yl)ethyl)-1,3,4-oxadiazol-2-yl)methyl)sulfamide, reference compound], the 50% inhibitory concentration (IC50) was 6520 nM.
